From PMC5218480 (PLoS ONE, 2017)

Tested on: MV-4-11 cells
Experiment: Gene expression microarray analysis (Affymetrix PrimeView) and GSEA
Type: cell-based, human
Parameters: RFU PODN (11730768_x_at) / Fold change /veh PODN (11730768_x_at) / RFU LINC00158 (11744669_a_at) / Fold change /veh LINC00158 (11744669_a_at) / RFU DUSP10 (11751237_a_at) / Fold change /veh DUSP10 (11751237_a_at) / RFU ID3 (11757404_x_at) / Fold change /veh ID3 (11757404_x_at) / RFU PLEKHG5 (11737974_s_at) / Fold change /veh PLEKHG5 (11737974_s_at) / RFU LRRC4B (11730491_at) / Fold change /veh LRRC4B (11730491_at) / RFU GIMAP4 (11747438_a_at) / Fold change /veh GIMAP4 (11747438_a_at) / RFU KRT8 (11758183_x_at) / Fold change /veh KRT8 (11758183_x_at) / RFU CNN1 (11734310_a_at) / Fold change /veh CNN1 (11734310_a_at) / RFU VPS37D (11726825_at) / Fold change /veh VPS37D (11726825_at) / RFU C10orf10 (11716522_x_at) / Fold change /veh C10orf10 (11716522_x_at) / RFU KIR2DL2 /// KIR2DL4 /// KIR2DL5A /// KIR2DL5B /// KIR2DS1 /// KIR2DS2 /// KIR2DS3 /// KIR2DS4 /// KIR3DL3 /// KIR3DL3 /// KIR3DS1 (11738374_at) / Fold change /veh KIR2DL2 /// KIR2DL4 /// KIR2DL5A /// KIR2DL5B /// KIR2DS1 /// KIR2DS2 /// KIR2DS3 /// KIR2DS4 /// KIR3DL3 /// KIR3DL3 /// KIR3DS1 (11738374_at) / RFU C1QL1 (11718748_at) / Fold change /veh C1QL1 (11718748_at) / RFU TMPRSS4 (11747572_a_at) / Fold change /veh TMPRSS4 (11747572_a_at) / RFU HAMP (11756126_x_at) / Fold change /veh HAMP (11756126_x_at) / RFU RNFT2 (11725882_a_at) / Fold change /veh RNFT2 (11725882_a_at) / RFU NR4A2 (11747474_a_at) / Fold change /veh NR4A2 (11747474_a_at) / RFU ABCC12 (11746883_a_at) / Fold change /veh ABCC12 (11746883_a_at) / RFU TMEM136 (11760407_x_at) / Fold change /veh TMEM136 (11760407_x_at) / RFU CLDN22 /// WWC2 (11732394_at) / Fold change /veh CLDN22 /// WWC2 (11732394_at) / RFU HLA-DPB1 (11760878_x_at) / Fold change /veh HLA-DPB1 (11760878_x_at) / RFU SPINT1 (11716480_a_at) / Fold change /veh SPINT1 (11716480_a_at) / RFU GAP43 (11754022_s_at) / Fold change /veh GAP43 (11754022_s_at) / RFU A4GNT (11735810_at) / Fold change /veh A4GNT (11735810_at) / RFU PRB3 (11715151_x_at) / Fold change /veh PRB3 (11715151_x_at) / RFU TUBB4B (11761932_at) / Fold change /veh TUBB4B (11761932_at) / RFU CAPN14 (11732068_a_at) / Fold change /veh CAPN14 (11732068_a_at) / RFU TMCC2 (11721928_a_at) / Fold change /veh TMCC2 (11721928_a_at) / RFU IRGQ (11745062_a_at) / Fold change /veh IRGQ (11745062_a_at) / RFU FAM174B (11720279_a_at) / Fold change /veh FAM174B (11720279_a_at) / RFU TMPRSS4 (11748680_a_at) / Fold change /veh TMPRSS4 (11748680_a_at) / RFU FAM212B (11763350_a_at) / Fold change /veh FAM212B (11763350_a_at) / RFU PLEKHG5 (11743358_a_at) / Fold change /veh PLEKHG5 (11743358_a_at) / RFU ZSCAN30 (11745921_a_at) / Fold change /veh ZSCAN30 (11745921_a_at) / RFU CMKLR1 (11741424_a_at) / Fold change /veh CMKLR1 (11741424_a_at) / RFU LOC101060620 /// MAPK8IP1 (11723275_at) / Fold change /veh LOC101060620 /// MAPK8IP1 (11723275_at) / RFU SPTSSB (11747773_x_at) / Fold change /veh SPTSSB (11747773_x_at) / RFU PRSS12 (11739890_at) / Fold change /veh PRSS12 (11739890_at) / RFU BIN1 (11741810_x_at) / Fold change /veh BIN1 (11741810_x_at) / RFU WNT11 (11732464_a_at) / Fold change /veh WNT11 (11732464_a_at) / RFU C10orf10 (11716521_a_at) / Fold change /veh C10orf10 (11716521_a_at) / RFU C5orf56 (11738089_at) / Fold change /veh C5orf56 (11738089_at) / RFU CYB561 (11721691_x_at) / Fold change /veh CYB561 (11721691_x_at) / RFU ANKRD19P (11752326_a_at) / Fold change /veh ANKRD19P (11752326_a_at) / RFU OR2T12 /// OR2T33 /// OR2T8 (11738714_s_at) / Fold change /veh OR2T12 /// OR2T33 /// OR2T8 (11738714_s_at) / RFU VCAN (11748164_a_at) / Fold change /veh VCAN (11748164_a_at) / RFU JSRP1 (11732532_at) / Fold change /veh JSRP1 (11732532_at) / RFU KRTAP10-11 (11738290_x_at) / Fold change /veh KRTAP10-11 (11738290_x_at) / RFU MYO3A (11730013_a_at) / Fold change /veh MYO3A (11730013_a_at) / RFU EBF3 (11725865_a_at) / Fold change /veh EBF3 (11725865_a_at) / RFU CAMK2N1 (11719241_x_at) / Fold change /veh CAMK2N1 (11719241_x_at) / RFU C5orf56 (11738088_a_at) / Fold change /veh C5orf56 (11738088_a_at) / RFU OLFML3 (11715873_a_at) / Fold change /veh OLFML3 (11715873_a_at) / RFU LOC100653217 /// NTM (11731650_a_at) / Fold change /veh LOC100653217 /// NTM (11731650_a_at) / RFU MAPK11 (11762145_a_at) / Fold change /veh MAPK11 (11762145_a_at) / RFU FIZ1 (11724087_x_at) / Fold change /veh FIZ1 (11724087_x_at) / RFU OASL (11726364_x_at) / Fold change /veh OASL (11726364_x_at) / RFU SOX15 (11748057_x_at) / Fold change /veh SOX15 (11748057_x_at) / RFU CD79A (11719716_a_at) / Fold change /veh CD79A (11719716_a_at) / RFU HIST1H1D (11736915_at) / Fold change /veh HIST1H1D (11736915_at) / RFU CASKIN2 (11723855_a_at) / Fold change /veh CASKIN2 (11723855_a_at) / RFU LOC730098 (11760151_x_at) / Fold change /veh LOC730098 (11760151_x_at) / RFU OR4N2 (11742367_at) / Fold change /veh OR4N2 (11742367_at) / RFU PRRT2 (11749266_a_at) / Fold change /veh PRRT2 (11749266_a_at) / RFU SNX32 (11753110_a_at) / Fold change /veh SNX32 (11753110_a_at) / RFU CDHR5 (11726645_a_at) / Fold change /veh CDHR5 (11726645_a_at) / RFU RCAN1 (11760418_a_at) / Fold change /veh RCAN1 (11760418_a_at) / RFU FAM167A (11723789_a_at) / Fold change /veh FAM167A (11723789_a_at) / RFU FAM26E (11764081_at) / Fold change /veh FAM26E (11764081_at) / RFU ISYNA1 (11749810_s_at) / Fold change /veh ISYNA1 (11749810_s_at) / RFU ACY1 (11761880_at) / Fold change /veh ACY1 (11761880_at) / RFU 11764098_at / Fold change /veh 11764098_at / RFU SAMD14 (11745864_x_at) / Fold change /veh SAMD14 (11745864_x_at) / RFU NPB (11741838_a_at) / Fold change /veh NPB (11741838_a_at) / RFU TMPRSS6 (11731388_a_at) / Fold change /veh TMPRSS6 (11731388_a_at) / RFU KRTAP10-2 (11738614_at) / Fold change /veh KRTAP10-2 (11738614_at) / RFU ARHGAP8 /// PRR5-ARHGAP8 (11727945_x_at) / Fold change /veh ARHGAP8 /// PRR5-ARHGAP8 (11727945_x_at) / RFU KRTAP5-7 /// NADSYN1 (11734609_at) / Fold change /veh KRTAP5-7 /// NADSYN1 (11734609_at) / RFU RASL12 (11751679_a_at) / Fold change /veh RASL12 (11751679_a_at) / RFU CDKN2B (11736163_a_at) / Fold change /veh CDKN2B (11736163_a_at) / RFU PRF1 (11729649_at) / Fold change /veh PRF1 (11729649_at) / RFU, ZNF638 /// ZNF638-IT1 / Fold change vs veh, ZNF638 /// ZNF638-IT1 / RFU, PANK3 / Fold change vs veh, PANK3 / RFU, SH3YL1 / Fold change vs veh, SH3YL1 / RFU, ZEB2 / Fold change vs veh, ZEB2 / RFU, NRIP1 / Fold change vs veh, NRIP1 / RFU, PTTG1IP / Fold change vs veh, PTTG1IP / RFU, CAPN2 / Fold change vs veh, CAPN2 / RFU, MED14 / Fold change vs veh, MED14 / RFU, SNORA58 / Fold change vs veh, SNORA58 / RFU, C1orf63 / Fold change vs veh, C1orf63 / RFU, LRRFIP1 / Fold change vs veh, LRRFIP1 / RFU, NDUFAF7 / Fold change vs veh, NDUFAF7 / RFU, SLC12A2 / Fold change vs veh, SLC12A2 / RFU, IBTK / Fold change vs veh, IBTK / RFU, ESF1 / Fold change vs veh, ESF1 / Fold change vs veh, TMEM50B / RFU, TAOK1 / Fold change vs veh, TAOK1 / RFU, ACBD3 / Fold change vs veh, ACBD3 / RFU, TMA16 / Fold change vs veh, TMA16 / RFU, RWDD3 / Fold change vs veh, RWDD3 / RFU, BCAT1 / Fold change vs veh, BCAT1 / RFU, EDEM3 / Fold change vs veh, EDEM3 / RFU, TMEM33 / Fold change vs veh, TMEM33 / RFU, WDR75 / Fold change vs veh, WDR75 / RFU, AHCTF1 / Fold change vs veh, AHCTF1 / RFU, TFRC / Fold change vs veh, TFRC / RFU, ZDHHC17 / Fold change vs veh, ZDHHC17 / RFU, NOM1 / Fold change vs veh, NOM1 / RFU, ARL8B / Fold change vs veh, ARL8B / RFU, ZBTB11 / Fold change vs veh, ZBTB11 / RFU, TAMM41 / Fold change vs veh, TAMM41 / RFU, KIAA1704 /// LOC100996395 / Fold change vs veh, KIAA1704 /// LOC100996395 / RFU, ING1 / Fold change vs veh, ING1 / RFU, TRMT61B / Fold change vs veh, TRMT61B / RFU, FUBP3 / Fold change vs veh, FUBP3 / RFU, TP53 / Fold change vs veh, TP53 / RFU, TNKS2 / Fold change vs veh, TNKS2 / RFU, ZFP14 / Fold change vs veh, ZFP14 / RFU, ACTR2 / Fold change vs veh, ACTR2 / RFU, PPP3R1 / Fold change vs veh, PPP3R1 / RFU, PIK3R1 / Fold change vs veh, PIK3R1 / RFU, HNRNPA1 / Fold change vs veh, HNRNPA1 / RFU, RNF170 / Fold change vs veh, RNF170 / RFU, ZNF28 / Fold change vs veh, ZNF28 / RFU, RNGTT / Fold change vs veh, RNGTT / RFU, OGT / Fold change vs veh, OGT / RFU, BRD1 / Fold change vs veh, BRD1 / RFU, MARS / Fold change vs veh, MARS / RFU, ZNF655 / Fold change vs veh, ZNF655 / RFU, FAHD1 / Fold change vs veh, FAHD1 / RFU, BDP1 / Fold change vs veh, BDP1 / RFU, LRRCC1 / Fold change vs veh, LRRCC1 / RFU, ARID1A / Fold change vs veh, ARID1A / RFU, ZNF146 / Fold change vs veh, ZNF146 / RFU, ZNF330 / Fold change vs veh, ZNF330 / RFU, GPN3 / Fold change vs veh, GPN3 / RFU, C9orf123 / Fold change vs veh, C9orf123 / RFU, N4BP2L2 / Fold change vs veh, N4BP2L2 / RFU, ARFIP1 / Fold change vs veh, ARFIP1 / RFU, FAM179B / Fold change vs veh, FAM179B / RFU, BCL10 / Fold change vs veh, BCL10 / RFU, UHRF1BP1L / Fold change vs veh, UHRF1BP1L / RFU, BET1 / Fold change vs veh, BET1 / RFU, CNOT2 / Fold change vs veh, CNOT2 / RFU, ZNF268 / Fold change vs veh, ZNF268 / Fold change vs veh, ZNF507 / RFU, DGCR2 / Fold change vs veh, DGCR2 / RFU, WDSUB1 / Fold change vs veh, WDSUB1 / Fold change vs veh, HSP90B1 /// MIR3652 / RFU, ADSS / Fold change vs veh, ADSS / RFU, GK / Fold change vs veh, GK / RFU, ZNF148 / Fold change vs veh, ZNF148 / RFU, TAF9 / Fold change vs veh, TAF9 / RFU, SLC1A5 / Fold change vs veh, SLC1A5 / RFU, SLMO2 / Fold change vs veh, SLMO2 / RFU, ABCC4 / Fold change vs veh, ABCC4 / RFU, LOC101060439 /// RAP1B / Fold change vs veh, LOC101060439 /// RAP1B / RFU, RFX7 / Fold change vs veh, RFX7 / RFU, GTPBP10 / Fold change vs veh, GTPBP10 / RFU, CNEP1R1 / Fold change vs veh, CNEP1R1 / RFU, BIVM-ERCC5 /// ERCC5 / Fold change vs veh, BIVM-ERCC5 /// ERCC5 / RFU, ILF3 / Fold change vs veh, ILF3 / RFU 11762660_at / Fold change /veh 11762660_at / RFU VCAN (11757783_s_at) / Fold change /veh VCAN (11757783_s_at) / RFU DDX43 (11728927_at) / Fold change /veh DDX43 (11728927_at) / RFU KRT8 (11758188_x_at) / Fold change /veh KRT8 (11758188_x_at) / RFU NKD1 (11759106_at) / Fold change /veh NKD1 (11759106_at) / RFU SRD5A1 (11742802_a_at) / Fold change /veh SRD5A1 (11742802_a_at) / RFU TPSAB1 /// TPSB2 (11721975_s_at) / Fold change /veh TPSAB1 /// TPSB2 (11721975_s_at) / RFU GSTM3 (11746129_a_at) / Fold change /veh GSTM3 (11746129_a_at) / RFU IL23R (11737362_x_at) / Fold change /veh IL23R (11737362_x_at) / RFU TMEM51 (11727254_a_at) / Fold change /veh TMEM51 (11727254_a_at) / RFU PIWIL2 (11732686_x_at) / Fold change /veh PIWIL2 (11732686_x_at) / RFU ORM1 (11744905_x_at) / Fold change /veh ORM1 (11744905_x_at) / RFU CCDC152 (11743942_at) / Fold change /veh CCDC152 (11743942_at) / RFU ECM1 (11717891_a_at) / Fold change /veh ECM1 (11717891_a_at) / RFU IL23R (11748794_a_at) / Fold change /veh IL23R (11748794_a_at) / RFU TNFAIP8L3 (11732012_x_at) / Fold change /veh TNFAIP8L3 (11732012_x_at) / RFU MBOAT4 (11741988_at) / Fold change /veh MBOAT4 (11741988_at) / RFU 11764193_at / Fold change /veh 11764193_at / RFU TMEM53 (11763286_at) / Fold change /veh TMEM53 (11763286_at) / RFU MAGEB2 (11727129_at) / Fold change /veh MAGEB2 (11727129_at) / RFU TMEM200A (11744735_a_at) / Fold change /veh TMEM200A (11744735_a_at) / RFU CCDC152 (11751479_a_at) / Fold change /veh CCDC152 (11751479_a_at) / RFU FAM211A (11726209_a_at) / Fold change /veh FAM211A (11726209_a_at) / RFU RGS16 (11746705_a_at) / Fold change /veh RGS16 (11746705_a_at) / RFU VCAN (11755009_s_at) / Fold change /veh VCAN (11755009_s_at) / RFU RHOB (11743442_s_at) / Fold change /veh RHOB (11743442_s_at) / RFU RGS16 (11720943_a_at) / Fold change /veh RGS16 (11720943_a_at) / RFU RGS16 (11720944_at) / Fold change /veh RGS16 (11720944_at) / RFU, VPS4B / Fold change vs veh, VPS4B / RFU, CREB1 / Fold change vs veh, CREB1 / RFU, DNAJC13 / Fold change vs veh, DNAJC13 / RFU, GNAQ / Fold change vs veh, GNAQ / RFU, CDK5R1 / Fold change vs veh, CDK5R1 / RFU, ZRANB3 / Fold change vs veh, ZRANB3 / RFU, CUL4A / Fold change vs veh, CUL4A / RFU, CCNY / Fold change vs veh, CCNY / RFU, UFL1 / Fold change vs veh, UFL1 / RFU, COG3 / Fold change vs veh, COG3 / RFU, DIAPH2 / Fold change vs veh, DIAPH2 / RFU, SKA2 / Fold change vs veh, SKA2 / RFU, AFF3 / Fold change vs veh, AFF3 / RFU, LMF1 / Fold change vs veh, LMF1 / RFU, IPO11 / Fold change vs veh, IPO11 / RFU, DFFB / Fold change vs veh, DFFB / RFU, FOXP1 / Fold change vs veh, FOXP1 / RFU, CARD8 / Fold change vs veh, CARD8 / RFU, STRN3 / Fold change vs veh, STRN3 / RFU, ADK / Fold change vs veh, ADK / RFU, RASSF2 / Fold change vs veh, RASSF2 / RFU, WIPF1 / Fold change vs veh, WIPF1 / RFU, LARP1B / Fold change vs veh, LARP1B / RFU, RASA1 / Fold change vs veh, RASA1 / RFU, RB1 / Fold change vs veh, RB1 / RFU, PPFIA1 / Fold change vs veh, PPFIA1 / RFU, MAT2A / Fold change vs veh, MAT2A / RFU, CCT5 / Fold change vs veh, CCT5 / RFU, WDR92 / Fold change vs veh, WDR92 / RFU, CUX1 / Fold change vs veh, CUX1 / RFU, TTC7A / Fold change vs veh, TTC7A / RFU, TMEM135 / Fold change vs veh, TMEM135 / RFU, DEPTOR / Fold change vs veh, DEPTOR / RFU, CPM / Fold change vs veh, CPM / RFU, DNAJB6 / Fold change vs veh, DNAJB6 / RFU, CACNA2D3 / Fold change vs veh, CACNA2D3 / RFU, DTX4 / Fold change vs veh, DTX4 / RFU, TFCP2 / Fold change vs veh, TFCP2 / RFU, GMCL1 /// GMCL1P1 / Fold change vs veh, GMCL1 /// GMCL1P1 / RFU, AEBP2 / Fold change vs veh, AEBP2 / RFU, SNHG1 /// SNORD22 /// SNORD25 /// SNORD26 /// SNORD27 /// SNORD28 /// SNORD29 /// SNORD31 / Fold change vs veh, SNHG1 /// SNORD22 /// SNORD25 /// SNORD26 /// SNORD27 /// SNORD28 /// SNORD29 /// SNORD31 / Fold change (Aza/veh), C12orf56 (ProbeSet 11735607_a_at) / Fold change (ACY-1035/veh), C12orf56 (ProbeSet 11735607_a_at) / Fold change (Aza/veh), FGFR1OP (ProbeSet 11751329_s_at) / Fold change (ACY-1035/veh), FGFR1OP (ProbeSet 11751329_s_at) / Fold change (Aza/veh), VPS36 (ProbeSet 11739960_a_at) / Fold change (ACY-1035/veh), VPS36 (ProbeSet 11739960_a_at) / RFU SYPL1 (11715823_x_at) / Fold change /veh SYPL1 (11715823_x_at) / RFU IGFBP7 (11715501_s_at) / Fold change /veh IGFBP7 (11715501_s_at) / RFU REEP3 (11722064_at) / Fold change /veh REEP3 (11722064_at) / RFU IGLL1 (11728026_x_at) / Fold change /veh IGLL1 (11728026_x_at): dose or concentration left out as unconfirmed
Conditions: MV-4-11 cells, 48 hours

With `Nc1ccc(-c2cccs2)cc1NC(=O)c1ccc2c(c1)cc(C1CC1)n2CCN1CCOCC1` [ACY-1035] the “Fold change /veh RNFT2 (11725882_a_at)” value was 1.00.
